Literature values as cited in paper PMC8389614, “A Comparison of Acute Pharmacological Effects of Methylone and MDMA Administration in Humans and Oral Fluid Concentrations as Biomarkers of Exposure” (Biology, 2021).
Read-outs that look alike come from different tables or passages of the source.

Legend:
[1] = cited from earlier work; for Median overall OF/B ratio: oral fluid vs plasma
5-HT1A receptor = test system: 5-HT1A receptor; set-up: method as in PMID 25237120, PMID 23583454; settings: cited from earlier work
users = test system: users; set-up: method as in earlier work; settings: cited from earlier work
5-HT2A receptors = test system: 5-HT2A receptors; set-up: method as in PMID 25237120, PMID 23583454; settings: significantly lower potencies than MDMA; cited from earlier work
[2] = oral administration, user reports

Structure (SMILES) | Maximum oral fluid to blood (OF/B) ratio ([1]; at 1.5 h after a 100 mg dose) | Median overall OF/B ratio ([1]; high dose 1.6 mg/kg) | Median overall OF/B ratio ([1]; low dose 1.0 mg/kg) | Activity at the 5-HT1A receptor (5-HT1A receptor) | Threshold dose (users; WHO Expert Committee on Drug Dependence) [mg] | Onset of effects after administration (users; [2]) [min] | Time of peak effects (users; [2]) [min] | Total duration of effects (users; [2]) [h] | Affinity for binding 5-HT2A receptors (5-HT2A receptors)
CNC(C)Cc1ccc2c(c1)OCO2 (stereo not drawn) [MDMA, 3,4-methylenedioxymethamphetamine] | 18.1 ± 7.9 | 6.0 | 5.2 |  |  |  |  |  | 
CNC(C)C(=O)c1ccc2c(c1)OCO2 (stereo not drawn) [Methylone, 3,4-methylenedioxymethcathinone] |  |  |  | partial agonist | 60 | 15 to 60 | 60 to 90 | 3 to 5 | some affinity
